Measurements reported in patent US5780642A, “Imidazole derivatives as therapeutic agents” (KNOLL Aktiengesellschaft, priority 1993, dated 1998).
Where a name gives a salt, the structure may show the parent alone. Read-outs that look alike come from different tables or passages of the source.

Experiments:
platelet aggregation = settings: cited from earlier work
[1] = tested on: Carrageenan-induced rat paw oedema; test: Test B: Carrageenan-induced rat paw oedema test; format: in vivo; settings: 100 mg/kg oral; active = 20% or greater inhibition of paw oedema in at least two out of three tests
Method: Test B was carried out in the following way: Carrageenan-induced rat paw oedema test Female rats, weight range 125-150 g were fasted overnight. One of the hind legs of each animal was marked with a line at the connection between the cuboid/navicular and calcaneus/talus bones. Groups of six rats were orally dosed at 10 ml/kg, in random order, with a given dose of the test compound given as a solution or suspension in 10% (w/v) aqueous acacia solution. One hour after dosing, 0.1 ml of 1% (w/v) sterile carrageenan λ in normal saline was injected deeply into the plantar surface of the marked hind foot of each rat. The volume of the foot (up to the marked line) was measured immediately after injection using duplicate water displacement readings. Three hours after injection the foot volume was measured again and the percentage increase in foot volume relative to the initial reading was calculated. The increase in foot volume (i.e. the degree of oedema) in drug treated animals when compared with that in the drug untreated control gave the degree of inhibition of paw oedema by the drug. Compounds were considered to be active in this test if they produced a 20% or greater inhibition of paw oedema in at least two out of three tests after oral dosing at 100 mg/kg. Statistical significance was assessed using the Student's t test for single dose studies and Dunnett's test for multiple dose studies. More advantageous compounds were active in both Tests A and B.

[2] = tested on: lymphocyte proliferation (BALB/c responder and C57BL/6 stimulator spleen cells); test: Test C: Mixed Lymphocyte Reaction; format: cell-based, mouse (BALB/c and C57BL/6); settings: Mus musculus, final concentration, read-out: IC50 (50% inhibition of the immune response)
Method: A mixed lymphocyte reaction (MLR) occurs when lymphocytes from two genetically dissimilar individuals, or inbred strains of mice are cultured together. An MLR results in the activation and proliferation of lymphocytes, which is measured by the incorporation of radiolabelled thymidine into the cellular DNA synthesised during cell division. A `one-way` MLR is used to determine the immunosuppressive activity of test compounds in vitro. In this reaction one population of spleen cells serves as the stimulator cells and is treated with mitomycin C to prevent cell division. Spleen cells from a second allogeneic population (responder cells) are untreated and when mixed with the stimulator cells are able to undergo division which is measured. The degree of proliferation is measured in the presence and absence of test compound to assess the immunosuppressive activity of the compound. The techniques for carrying out lymphocyte proliferation assays including MLRs are well known, eg Bradley, pages 156-166, in Mishell and Shiigi, Eds. Selected Methods in Cellular Immunology (Freeman, San Francisco, 1980); and Battisto et al, methods in Enzymology 1987; 150: 83-91. Various slight modifications of these techniques are in use and that used herein is described in Gibb, Webber and Bowen, J Immunological Methods 1985; 81: 107-113. The immunomodulant activity of the preferred compounds was determined in a mixed lymphocyte reaction (Test C) in the following manner: Mixed Lymphocyte Reaction Cell suspensions obtained from the spleens of female BALB/c and C57BL/6 strain mice of between 6 and 9 weeks of age were used as sources of responder and stimulator cells respectively. The mice were killed using a rising concentration of CO2 and the spleens removed aseptically and teased using a scalpel and forceps to produce a single cell suspension in Hanks balanced salt solution (HBSS). The suspensions were filtered through cell strainers (Falcon), sedimented by centrifugation and resuspended in Tris-buffered ammonium chloride pH 7.2 (medium D) to lyse the erythrocytes. The cells were sedimented again and washed twice in HBSS before resuspending in complete RPMI 1640 tissue culture medium (medium E). The C57BL/6 cells were resuspended to 9 mls per spleen and a solution of mitomycin C at 400 μg/ml in medium E added to give a final concentration of 40 μg/ml. After incubation of the C57BL/6 cells at 37° C. for 30 minutes in an atmosphere of 5% CO2 and 95% air, the cells were sedimented and washed 3 times in medium E. Both cell suspensions were diluted in medium E to 5×10^6 cells/ml. 100 μl of each of the responder and stimulator cell suspensions were aliquoted into the wells of 96 well flat bottom microtitre plates containing 50 μl of test compound at an appropriate dilution (initially 50 μM diluted in medium E from a stock solution at 100 mM in dimethyl sulphoxide) giving a final test compound concentration of 10 μM (final dilution). […] After four days of culture at 37° C. in a humidified atmosphere of 5% CO2 and 95% air, 1 μCi of tritiated thymidine in 20 μl of medium E was added to each well and the plates incubated for a further 24 hours. […] The filters were transferred to vials to which 2 mls of Packard Emulsifier-Safe scintillation fluid was added and the radioactivity from the incorporated thymidine was counted in a Packard liquid scintillation counter. […] The data were analysed to determine the percentage inhibition of lymphocyte proliferation by the test compound. […]

[3] = tested on: Zymosan Stimulated Macrophages (arachidonic acid release); test: Test A: Inhibition of Arachidonic Acid Release from Zymosan Stimulated Macrophages; format: cell-based, mouse (female MF1 mice); settings: Mus musculus, Macrophage, read-out: Test A IC50
Method in brief: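 Peritoneal macrophages from female MF1 mice, labelled overnight with [3H]-arachidonic acid (1.6 μCi/ml), then exposed to compound 24 h unstimulated and re-dosed with zymosan stimulus for 5 h at 37 °C. Released radioactivity counted by scintillation; spontaneous release subtracted; IC50 from six concentrations (1–100 μM), quadruplicate wells.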

[4] = tested on: Carrageenan-induced pleurisy (migrating leukocytes); test: Carrageenan-induced pleurisy in rats; format: in vivo; settings: rat, p.o. at time of challenge and 24h and 48h thereafter; 10 mg/kg
Method: The most advantageous compounds of formula I were active in Tests A and B and also in the following test. Carrageenan-induced pleurisy in rats was carried out as described by Ackerman et al. J. Pharmacol. Exp. Therap. 1980, 215, 588-595. Migrating leukocytes were harvested by lavage of the thoracic cavity 72h after injection of 0.3 ml 1% λcarrageenan in sterile isotonic saline. Test compounds were administered p.o. at the time of challenge and 24h and 48 h thereafter.

[5] = cited from earlier work
[6] = Indian Journal of Pharmacology 1973, 5, 428 / Pfl. Krankh. 1975, 3, 149; cited from earlier work
[7] = inhibition of arachidonic acid release, zymosan stimulated mouse peritoneal macrophages, tested at 100, 50, 20, 10, 5 and 1 μM, ≤100 μM considered active

| IC50 [3, 7] | SMILES | IC50 [2] | also measured |
| --- | --- | --- | --- |
|  | CC(CCn1ccnc1)NCc1ccccc1 (stereo not shown) [Compound A] |  | inhibitory effect on platelet aggregation in vitro (platelet aggregation): inhibitory effect on platelet aggregation in vitro |
| 14 µM | Cc1nccn1CCCNCCOc1ccc(Cl)cc1 [Example 8, N-[2-(4-Chlorophenoxy)ethyl]-3-(2-methylimidazol-1-yl)propylamine] | 2.4 µM | activity in Test B (inhibition of paw oedema) [1]: active |
| 7 µM | Clc1ccc(OCCNCCCCCn2ccnc2)cc1 [Example 16, N-[2-(4-chlorophenoxy)ethyl]-5-(imidazol-1-yl)pentylamine dihydrochloride hemihydrate] | 2.8 µM | activity in carrageenan-induced pleurisy at 10 mg/kg [4]: active |
| 12 µM | CC(C)(COc1ccc(Cl)cc1)NCCCn1ccnc1.Cl.Cl [Example 17, N-[2-(4-chlorophenoxy)-1,1-dimethylethyl]-3-(imidazol-1-yl)propylamine dihydrochloride] | 5.9 µM | activity in carrageenan-induced pleurisy at 10 mg/kg [4]: active |
|  | CC(C)(CSc1ccc(Cl)cc1)NCCCn1ccnc1 [Example 19, N-[2-(4-Chlorophenylthio)-1,1-dimethylethyl]-3-(imidazol-1-yl)propylamine dihydrochloride] | 1.7 µM | IC50 [3]: 8 µM |
| 25 µM | CC(C)(NCCCc1ncc[nH]1)c1ccccc1 [Example 87, 3-(imidazol-2-yl)-N-(1-methyl-1-phenylethyl)propylamine] | 5.8 µM |  |
|  | CCC(NCC(C)N1CCOCC1)c1ccc(Cl)c(Cl)c1 (stereo not drawn) [N-[2-(4-Morpholino)propyl]-α-ethyl-3,4-dichlorobenzylamine] |  | undesirable side-effects in mice [5]: wide range of undesirable side-effects in mice; antiinflammatory activity (alleged) [6]: alleged to have antiinflammatory activity |
